Assay results published in ChEMBL document CHEMBL1629662, “Antimicrobial activity of prulifloxacin tested against a worldwide collection of gastroenteritis-producing pathogens, including those causing traveler's diarrhea” (2009).

System: Yersinia pseudotuberculosis
Experiment: Antibacterial activity against Yersinia pseudotuberculosis assessed as percent resistant isolates by broth microdilution method
Assay type: functional

SMILES | Activity [%]
CC1(C)S[C@@H]2[C@H](NC(=O)[C@H](N)c3ccccc3)C(=O)N2[C@H]1C(=O)O [AMPICILLIN] | 91.3
O=C(O)c1cn(C2CC2)c2cc(N3CCNCC3)c(F)cc2c1=O [CIPROFLOXACIN] | 0
C[C@H]1c2cccc(O)c2C(=O)C2=C(O)[C@]3(O)C(=O)C(C(N)=O)=C(O)[C@@H](N(C)C)[C@@H]3[C@@H](O)[C@@H]21.O [DOXYCYCLINE] | 4.3
CCn1cc(C(=O)O)c(=O)c2ccc(C)nc21 [NALIDIXIC ACID] | 6.5
CC1Sc2c(C(=O)O)c(=O)c3cc(F)c(N4CCNCC4)cc3n21 (stereo not given) [ULIFLOXACIN] | 0
